From US20090028820A1, “Antiviral Agent” (MITSUBISHI TANABE PHARMA CORPORATION, priority 2005, published 2009)

Key:
[1] = system: Hepatitis C virus; settings: cited from earlier work
[2] = system: HCV-subgenomic replicon; settings: Huh7 cells; cited from earlier work
[3] = system: HCV-replicon; assay: Inhibition of HCV-replicon replication in HCV-replicon cells (quantitative PCR of replicon RNA); assay type: cell-based, Hepatitis C virus; settings: for inhibition of replication of the HCV-replicon: HGF alone, clone #5-15, 48 hours
Experimental: As a cell system for in vitro replication of HCV, an HCV-replicon cell clone #5-15 derived from the human liver cancer cell strain Huh7 was used (purchased from ReBLikon GmbH). The clone #5-15 was suspended in the Dulbecco's Eagle's MEM medium containing 2% fetal bovine serum, and seeded on a 96-well plate at 1.5×10^4 cells/100 μl/well. As blank, wells added with the medium alone was prepared without seeding the cells (Day 0). After culture overnight in a humid incubator at 37° C. under 5% CO2 gas, 50 μl each of human recombinant IFNα (BIOMEDICAL LABORATORIES, Cat. No. 11105-1, lot No. #2122) and/or human recombinant HGF (produced in-house, Lot No. 920629) was added to each well. The final concentrations of IFNα were 0, 0.1 and 0.3 international unit (IU)/ml, the final concentrations of HGF were 0, 10 and 100 ng/ml, and the final volume was adjusted to 200 μl for all the wells. Three wells (triplicate) were prepared for each sample (Day 1). After culture for 48 hours, total RNA was extracted from each well by using ABI-PRIZM 6100 Nucleic Acid PrepStation (Applied Biosystems). Extraction was performed according to the operation manual of the apparatus. The solution of the extracted RNA was stored at −80° C. (Day 3). The samples were thawed on the next day, and amounts of the HCV-replicon RNA were quantified by quantitative polymerase chain reaction (PCR). The quantification was performed according to the method of Takeuchi et al. (Takeuchi, T. et al., Gastroenterology, Vol. 116, 636-642 (1999)) by using ABI PRISM 7900 (Applied Biosystems).
RNAs used in the quantitative PCR for a standard curve were prepared by in vitro transcription using a vector obtained by ligating the gene of the HCV MKC-1A strain (Genbank accession No. D45172) to the downstream of the T7 promoter using T7 RiboMAX Express Large Scale RNA Production System (Promega), and it was confirmed that linearity was obtainable between 10^2 and 10^8 in the aforementioned quantitative PCR.

[4] = system: HCV-replicon cell clone #5-15 derived from Huh7; assay: Growth of HCV-replicon cell strain (Cell Titer 96 Aqueous One Solution Cell Proliferation Assay, absorbance 490 nm); assay type: cell-based, human; settings: HGF 0, 10, 100 ng/ml; IFNα 0, 0.1, 0.3 IU/ml; 48 hours
Experimental: To determine whether or not the decreases in the replication of HCV-replicons observed in Example 1 were attributable to the decrease in the cell count itself, the following experiment was performed.
The clone #5-15 was suspended in Dulbecco's Eagle's MEM medium containing 2% fetal bovine serum, and seeded on a 96-well plate at 1.5×10^4 cells/100 μl/well. As blank, wells added with a medium alone was prepared without seeding cells (Day 0). After culture overnight in a humid incubator at 37° C. under 5% CO2 gas, 50 μl each of human recombinant IFNα (BIOMEDICAL LABORATORIES, Cat. No. 11105-1, lot No. #2122) and/or human recombinant HGF (produced in-house, Lot No. 920629) was added to each well. The final concentrations of IFNα were 0, 0.1 and 0.3 international unit (IU)/ml, the final concentrations of HGF were 0, 10 and 100 ng/ml, and the final volume was adjusted to 200 μl for all the wells. Three wells (triplicate) were prepared for each sample (Day 1). After culture for 48 hours, the number of cells was measured by Cell Titer 96 Aqueous One Solution Cell Proliferation Assay (Promega, Lot #171755), which is a type of cell growth assay kit. The measurement was performed according to the manual of the assay kit. […] Then, the plate was incubated for one hour in a humid incubator containing 5% CO2 set at 37° C., and then measured at absorbance 490 nm by using a 96-well plate reader.

COc1ccc2c(O[C@@H]3C[C@H]4C(=O)N[C@]5(C(=O)O)C[C@H]5/C=C\CCCCC[C@H](NC(=O)OC5CCCC5)C(=O)N4C3)cc(-c3csc(NC(C)C)n3)nc2c1 [BILN-2061]
improvement of viremia ([1]; patients with hepatitis C): confirmed to improve viremia | inhibition of replication of replicon RNA [2]: inhibits replication of replicon RNA

NC(=O)c1ncn([C@@H]2O[C@H](CO)[C@@H](O)[C@H]2O)n1 [Ribavirin, ribavirin]
efficacy against HCV ([1]; agent alone): ineffective

HGF: human recombinant HGF (produced in-house, Lot No. 920629); hepatocyte growth factor
effect of HGF on IFN-dependent inhibition of virus replication ([3]; HGF 10 ng/ml combined with IFN): synergistically enhanced | inhibition of replication of the HCV-replicon ([3]; 10 ng/ml): almost no inhibition of the replication was observed | inhibition of replication of the HCV-replicon ([3]; 100 ng/ml): inhibited the replication of the HCV-replicon | effect of HGF on inhibition of HCV-replicon replication by IFN ([3]; HGF combined with IFN 0.1 IU/ml): synergistically acted to inhibit the replication of HCV-replicons | effect of HGF on inhibition of HCV-replicon replication by IFN ([3]; HGF combined with IFN 0.3 IU/ml): effect of HGF was not observed | inhibition of growth of the HCV-replicon cell line [4]: not observed to inhibit the growth
